Like-named read-outs stand apart in the source and are kept apart here.
Tested on: DosRST regulon
Assay type: cell-based
Conditions: for WT DMSO/WT HC102A Fold change / log2 Fold change: upregulated
[1] = Rv2626c, WT Mtb treated with HC102A compared to DMSO
[2] = Rv2627c, WT Mtb treated with HC102A compared to DMSO
[3] = Rv2628, WT Mtb treated with HC102A compared to DMSO
[4] = Rv2629, WT Mtb treated with HC102A compared to DMSO
[5] = Rv2630, WT Mtb treated with HC102A compared to DMSO
[6] = Rv2631, WT Mtb treated with HC102A compared to DMSO
[7] = Rv3083, WT Mtb treated with HC102A compared to DMSO
[8] = Rv3084 lipR, WT Mtb treated with HC102A compared to DMSO
[9] = Rv3085, WT Mtb treated with HC102A compared to DMSO
[10] = Rv3127, WT Mtb treated with HC102A compared to DMSO
[11] = Rv3130c, WT Mtb treated with HC102A compared to DMSO
[12] = Rv3131, WT Mtb treated with HC102A compared to DMSO
[13] = Rv3132c, WT Mtb treated with HC102A compared to DMSO
[14] = Rv3133c, WT Mtb treated with HC102A compared to DMSO
[15] = Rv3134c, WT Mtb treated with HC102A compared to DMSO
[16] = Rv3839, WT Mtb treated with HC102A compared to DMSO
[17] = WT Mtb treated with HC102A compared to DMSO
[18] = WT Mtb treated with HC102A, replicate 1
[19] = WT Mtb treated with HC102A, replicate 2

## C[C@@H]1CC(C)(C)C[C@]2(C1)NC(=O)NC2=O (racemic) [HC102A, 7,7,9-trimethyl-1,3-diazaspiro[4.5]decane-2,4-dione]
Rv2625c, WT Mtb treated with HC102A compared to DMSO
  log2 Fold change, gene MT2700: −5.149
Rv2625c, WT Mtb treated with HC102A, replicate 1
  Counts per million (CPM) WT_HC102A1, gene MT2700: 146.1 CPM
Rv2625c, WT Mtb treated with HC102A, replicate 2
  Counts per million (CPM) WT_HC102A2, gene MT2700: 111.9 CPM
[1]
  Fold change, gene MT2701: 0.04398
  log2 Fold change, gene MT2701: −4.507
Rv2626c, WT Mtb treated with HC102A, replicate 1
  Counts per million (CPM) WT_HC102A1, gene MT2701: 447.5 CPM
Rv2626c, WT Mtb treated with HC102A, replicate 2
  Counts per million (CPM) WT_HC102A2, gene MT2701: 554.5 CPM
[2]
  Fold change, gene MT2702: 0.01981
  log2 Fold change, gene MT2702: −5.658
Rv2627c, WT Mtb treated with HC102A, replicate 1
  Counts per million (CPM) WT_HC102A1, gene MT2702: 101.3 CPM
Rv2627c, WT Mtb treated with HC102A, replicate 2
  Counts per million (CPM) WT_HC102A2, gene MT2702: 156.7 CPM
[3]
  Fold change, gene MT2703: 0.03499
  log2 Fold change, gene MT2703: −4.837
Rv2628, WT Mtb treated with HC102A, replicate 1
  Counts per million (CPM) WT_HC102A1, gene MT2703: 20.64 CPM
Rv2628, WT Mtb treated with HC102A, replicate 2
  Counts per million (CPM) WT_HC102A2, gene MT2703: 33.42 CPM
[4]
  Fold change, gene MT2704: 0.09873
  log2 Fold change, gene MT2704: −3.34
Rv2629, WT Mtb treated with HC102A, replicate 1
  Counts per million (CPM) WT_HC102A1, gene MT2704: 540.6 CPM
Rv2629, WT Mtb treated with HC102A, replicate 2
  Counts per million (CPM) WT_HC102A2, gene MT2704: 660.1 CPM
[5]
  Fold change, gene MT2705: 0.0994
  log2 Fold change, gene MT2705: −3.331
Rv2630, WT Mtb treated with HC102A, replicate 1
  Counts per million (CPM) WT_HC102A1, gene MT2705: 71.28 CPM
Rv2630, WT Mtb treated with HC102A, replicate 2
  Counts per million (CPM) WT_HC102A2, gene MT2705: 56.05 CPM
[6]
  Fold change, gene MT2707: 0.1179
  log2 Fold change, gene MT2707: −3.085
Rv2631, WT Mtb treated with HC102A, replicate 1
  Counts per million (CPM) WT_HC102A1, gene MT2707: 110.9 CPM
Rv2631, WT Mtb treated with HC102A, replicate 2
  Counts per million (CPM) WT_HC102A2, gene MT2707: 72.59 CPM
[7]
  Fold change, gene MT3168: 0.2851
  log2 Fold change, gene MT3168: −1.81
Rv3083, WT Mtb treated with HC102A, replicate 1
  Counts per million (CPM) WT_HC102A1, gene MT3168: 100.3 CPM
Rv3083, WT Mtb treated with HC102A, replicate 2
  Counts per million (CPM) WT_HC102A2, gene MT3168: 66.84 CPM
[8]
  Fold change, gene MT3169: 0.2724
  log2 Fold change, gene MT3169: −1.876
Rv3084 lipR, WT Mtb treated with HC102A, replicate 1
  Counts per million (CPM) WT_HC102A1, gene MT3169: 16.74 CPM
Rv3084 lipR, WT Mtb treated with HC102A, replicate 2
  Counts per million (CPM) WT_HC102A2, gene MT3169: 9.205 CPM
[9]
  Fold change, gene MT3170: 0.3224
  log2 Fold change, gene MT3170: −1.633
Rv3085, WT Mtb treated with HC102A, replicate 1
  Counts per million (CPM) WT_HC102A1, gene MT3170: 11.79 CPM
Rv3085, WT Mtb treated with HC102A, replicate 2
  Counts per million (CPM) WT_HC102A2, gene MT3170: 8.619 CPM
[10]
  Fold change, gene MT3212: 0.0633
  log2 Fold change, gene MT3212: −3.982
Rv3127, WT Mtb treated with HC102A, replicate 1
  Counts per million (CPM) WT_HC102A1, gene MT3212: 690.1 CPM
Rv3127, WT Mtb treated with HC102A, replicate 2
  Counts per million (CPM) WT_HC102A2, gene MT3212: 898.2 CPM
[11]
  Fold change, gene MT3216: 0.05498
  log2 Fold change, gene MT3216: −4.185
Rv3130c, WT Mtb treated with HC102A, replicate 1
  Counts per million (CPM) WT_HC102A1, gene MT3216: 1,395.93 CPM
Rv3130c, WT Mtb treated with HC102A, replicate 2
  Counts per million (CPM) WT_HC102A2, gene MT3216: 1,787.99 CPM
[12]
  Fold change, gene MT3217: 0.03013
  log2 Fold change, gene MT3217: −5.053
Rv3131, WT Mtb treated with HC102A, replicate 1
  Counts per million (CPM) WT_HC102A1, gene MT3217: 415.6 CPM
Rv3131, WT Mtb treated with HC102A, replicate 2
  Counts per million (CPM) WT_HC102A2, gene MT3217: 421.7 CPM
[13]
  Fold change, gene MT3218: 0.0994
  log2 Fold change, gene MT3218: −3.331
Rv3132c, WT Mtb treated with HC102A, replicate 1
  Counts per million (CPM) WT_HC102A1, gene MT3218: 439 CPM
Rv3132c, WT Mtb treated with HC102A, replicate 2
  Counts per million (CPM) WT_HC102A2, gene MT3218: 364.8 CPM
[14]
  Fold change, gene MT3219: 0.07283
  log2 Fold change, gene MT3219: −3.779
Rv3133c, WT Mtb treated with HC102A, replicate 1
  Counts per million (CPM) WT_HC102A1, gene MT3219: 233.8 CPM
Rv3133c, WT Mtb treated with HC102A, replicate 2
  Counts per million (CPM) WT_HC102A2, gene MT3219: 174 CPM
[15]
  Fold change, gene MT3220: 0.04505
  log2 Fold change, gene MT3220: −4.472
Rv3134c, WT Mtb treated with HC102A, replicate 1
  Counts per million (CPM) WT_HC102A1, gene MT3220: 264.6 CPM
Rv3134c, WT Mtb treated with HC102A, replicate 2
  Counts per million (CPM) WT_HC102A2, gene MT3220: 171.8 CPM
[16]
  Fold change, gene MT3947: 0.2314
  log2 Fold change, gene MT3947: −2.111
Rv3839, WT Mtb treated with HC102A, replicate 1
  Counts per million (CPM) WT_HC102A1, gene MT3947: 25.93 CPM
Rv3839, WT Mtb treated with HC102A, replicate 2
  Counts per million (CPM) WT_HC102A2, gene MT3947: 7.681 CPM
[17]
  Fold change, gene MT0598: 0.2421
  Fold change, gene MT0600: 0.1586
  Fold change, gene MT1096: 0.3436
  Fold change, gene MT1385: 0.3712
  Fold change, gene MT1775: 0.2046
  Fold change, gene MT1777: 0.1265
  Fold change, gene MT2088: 0.0678
  Fold change, gene MT2090: 0.1133
  Fold change, gene MT3209: 0.4
  Fold change, gene MT3210: 0.04949
  log2 Fold change, gene MT0598: −2.046
  log2 Fold change, gene MT0600: −2.656
  log2 Fold change, gene MT1096: −1.541
  log2 Fold change, gene MT1385: −1.43
  log2 Fold change, gene MT1775: −2.289
  log2 Fold change, gene MT1777: −2.983
  log2 Fold change, gene MT2088: −3.883
  log2 Fold change, gene MT2090: −3.141
  log2 Fold change, gene MT3209: −1.322
  log2 Fold change, gene MT3210: −4.337
[18]
  Counts per million (CPM) WT_HC102A1, gene MT0598: 57.71 CPM
  Counts per million (CPM) WT_HC102A1, gene MT0600: 129.6 CPM
  Counts per million (CPM) WT_HC102A1, gene MT1096: 9.103 CPM
  Counts per million (CPM) WT_HC102A1, gene MT1385: 56.65 CPM
  Counts per million (CPM) WT_HC102A1, gene MT1775: 172.1 CPM
  Counts per million (CPM) WT_HC102A1, gene MT1777: 11.46 CPM
  Counts per million (CPM) WT_HC102A1, gene MT2088: 254.1 CPM
  Counts per million (CPM) WT_HC102A1, gene MT2090: 3,874.46 CPM
  Counts per million (CPM) WT_HC102A1, gene MT3209: 5.689 CPM
  Counts per million (CPM) WT_HC102A1, gene MT3210: 0.5689 CPM
[19]
  Counts per million (CPM) WT_HC102A2, gene MT0598: 66.55 CPM
  Counts per million (CPM) WT_HC102A2, gene MT0600: 211.3 CPM
  Counts per million (CPM) WT_HC102A2, gene MT1096: 3.811 CPM
  Counts per million (CPM) WT_HC102A2, gene MT1385: 35.06 CPM
  Counts per million (CPM) WT_HC102A2, gene MT1775: 61.8 CPM
  Counts per million (CPM) WT_HC102A2, gene MT1777: 24.1 CPM
  Counts per million (CPM) WT_HC102A2, gene MT2088: 225.6 CPM
  Counts per million (CPM) WT_HC102A2, gene MT2090: 5,782.55 CPM
  Counts per million (CPM) WT_HC102A2, gene MT3209: 5.394 CPM
  Counts per million (CPM) WT_HC102A2, gene MT3210: 0.1173 CPM
Gene MT3514 (Rv3406), replicate 1
  Counts per million (CPM) WT_HC102A1: 494.4 CPM
Gene MT3514 (Rv3406), replicate 2
  Counts per million (CPM) WT_HC102A2: 168 CPM
Gene MT3514 (Rv3406)
  WT DMSO/WT HC102A Fold change: 6.242
  log2 Fold change: 2.642
Gene MT3515 (Rv3407), replicate 1
  Counts per million (CPM) WT_HC102A1: 191.1 CPM
Gene MT3515 (Rv3407), replicate 2
  Counts per million (CPM) WT_HC102A2: 103.1 CPM
Gene MT3515 (Rv3407)
  WT DMSO/WT HC102A Fold change: 2.831
  log2 Fold change: 1.501
